Publication PMC3192407, “Both Basic and Acidic Amino Acid Residues of IpTxa Are Involved in Triggering Substate of RyR1” (Journal of Biomedicine and Biotechnology, 2011)
Bridge positions count the residues as written; N and C are the ends. Peptide text beside a SMILES is read from it.

Biological target: T1, rabbit skeletal RyR1 (native RyR1 in HSR) (Oryctolagus cuniculus, UniProt P11716)
T1 construct: tested using native RyR1 in rabbit skeletal HSR; from tissue; host or cells: rabbit fast-twitch back and leg muscles (heavy SR vesicles)
Assay: Planar lipid bilayer single-channel recording, native RyR1 in HSR
Type: biochemical
Conditions: for EC50: native RyR1 in SR, toxin cis, 6-100 nM, -30 mV, [Ca^2+]free 10 μM, pH 7.2, Hill fit, means ± SE of 3–9 experiments, read-out: EC50 for Psubstate
Method: A heavy fraction of fragmented SR vesicles (HSR) containing junctional SR was prepared from rabbit fast-twitch back and leg muscles as described previously.
Single-channel recordings of rabbit skeletal RyR1 incorporated into planar lipid bilayers were carried out as described previously. Lipid bilayers, consisting of brain tissue phosphatidylethanolamine and phosphatidylserine (1 : 1) in decane (20 mg/mL) were formed across a hole of approximately 200 μm diameter. Thinning of the bilayer was monitored by bilayer capacitance. The basic composition of the cis/trans solution consisted of 300 mM cesium methanesulfonate, 10 mM Tris/Hepes (pH 7.2), 2 mM EGTA, and 1.998 mM CaCl2 ([Ca^2+]free = 10 μM). [Ca^2+]free was calculated using the “Chelator” program (Theo Schoenmaker). Cs^+ was selected as the charge carrier to ensure precise control of free [Ca^2+], to increase the channel conductance, and to avoid any contribution from potassium channels present in the SR membrane. Chloride channels were inhibited by using the impermeant anion methanesulfonate. Incorporation of ion channels was carried out as described by Miller and Racker and confirmed by recording the characteristically high single-channel conductance of RyRs. The trans side was maintained at ground and the cis side was clamped at −30 mV relative to the ground. After addition of the IpTxa to the cis chamber, the single channel data were collected at −30 mV for 2–5 min. […] Recordings were filtered with an 8-pole low-pass Bessel filter at 1 kHz and digitalized through a Digidata 1200 series interface (Axon Instruments). Data acquisition and analysis were done with the Axon Instruments software, pClamp v7.0.
Data were analyzed using the Hill equation described previously:
(1) Psubstate=(Psubstate, max )/[1+(EC50/[IpTxa])^nH] orPo=(Po, max )/[1+(EC50/[IpTxa])^nH], where (Po, max ) is the Po observed at saturating concentrations of IpTxa, EC50 is the IpTxa concentration for which 50% of Po, max is obtained and nH is the Hill coefficient. Also, Psubstate, max is the Psubstate observed at saturating concentrations of IpTxa, EC50 is the IpTxa concentration for which 50% of Psubstate, max is obtained, and nH is the Hill coefficient. The probability of full open state of the channel (Po) was defined as the ratio of the time spent in the open state to the total time exclusive of time spent in the substate. The probability to obtain substate (Psubstate) was calculated as the time spent in the substate divided by a given total recording time. The durations of the substate were obtained by manual positioning of the cursors and constructing all point histograms. Mean duration of substate was measured by total substate time divided by total substate frequencies.
Results are given as means ± SE. Significant differences were analyzed using Student's t-test. Differences were considered to be significant when P < 0.05. The fitting of the data to the graphs were carried out using the software, Origin v7.
To examine how IpTxa modifies RyR1 activity, RyR1 in HSR incorporated in planar lipid bilayers was tested in the presence or absence of synthetic wild-type IpTxa. The chamber solutions for both cis (cytosolic) and trans (luminal) sides included 300 mM cesium methanesulfonate and 10 mM Tris-Hepes (pH 7.2). 10 μM free Ca^2+ was added to the cis side to activate the incorporated RyR1. After an addition of IpTxa to the cis chamber, the single channel gating properties were recorded at a holding potential of −30 mV for over 2 min at each toxin concentration. […] To examine the effects of IpTxa on full open state, we calculated the probability to obtain the full open state (Po) as the time spent in the open state divided by the total time exclusive of the time spent in the substate. The time for recorded Po was in the range of 30 s–2 min. […] The steady-state Po was 0.18 ± 0.02 at 10 μM Ca^2+. […]

T1 sequence (P11716 whole entry): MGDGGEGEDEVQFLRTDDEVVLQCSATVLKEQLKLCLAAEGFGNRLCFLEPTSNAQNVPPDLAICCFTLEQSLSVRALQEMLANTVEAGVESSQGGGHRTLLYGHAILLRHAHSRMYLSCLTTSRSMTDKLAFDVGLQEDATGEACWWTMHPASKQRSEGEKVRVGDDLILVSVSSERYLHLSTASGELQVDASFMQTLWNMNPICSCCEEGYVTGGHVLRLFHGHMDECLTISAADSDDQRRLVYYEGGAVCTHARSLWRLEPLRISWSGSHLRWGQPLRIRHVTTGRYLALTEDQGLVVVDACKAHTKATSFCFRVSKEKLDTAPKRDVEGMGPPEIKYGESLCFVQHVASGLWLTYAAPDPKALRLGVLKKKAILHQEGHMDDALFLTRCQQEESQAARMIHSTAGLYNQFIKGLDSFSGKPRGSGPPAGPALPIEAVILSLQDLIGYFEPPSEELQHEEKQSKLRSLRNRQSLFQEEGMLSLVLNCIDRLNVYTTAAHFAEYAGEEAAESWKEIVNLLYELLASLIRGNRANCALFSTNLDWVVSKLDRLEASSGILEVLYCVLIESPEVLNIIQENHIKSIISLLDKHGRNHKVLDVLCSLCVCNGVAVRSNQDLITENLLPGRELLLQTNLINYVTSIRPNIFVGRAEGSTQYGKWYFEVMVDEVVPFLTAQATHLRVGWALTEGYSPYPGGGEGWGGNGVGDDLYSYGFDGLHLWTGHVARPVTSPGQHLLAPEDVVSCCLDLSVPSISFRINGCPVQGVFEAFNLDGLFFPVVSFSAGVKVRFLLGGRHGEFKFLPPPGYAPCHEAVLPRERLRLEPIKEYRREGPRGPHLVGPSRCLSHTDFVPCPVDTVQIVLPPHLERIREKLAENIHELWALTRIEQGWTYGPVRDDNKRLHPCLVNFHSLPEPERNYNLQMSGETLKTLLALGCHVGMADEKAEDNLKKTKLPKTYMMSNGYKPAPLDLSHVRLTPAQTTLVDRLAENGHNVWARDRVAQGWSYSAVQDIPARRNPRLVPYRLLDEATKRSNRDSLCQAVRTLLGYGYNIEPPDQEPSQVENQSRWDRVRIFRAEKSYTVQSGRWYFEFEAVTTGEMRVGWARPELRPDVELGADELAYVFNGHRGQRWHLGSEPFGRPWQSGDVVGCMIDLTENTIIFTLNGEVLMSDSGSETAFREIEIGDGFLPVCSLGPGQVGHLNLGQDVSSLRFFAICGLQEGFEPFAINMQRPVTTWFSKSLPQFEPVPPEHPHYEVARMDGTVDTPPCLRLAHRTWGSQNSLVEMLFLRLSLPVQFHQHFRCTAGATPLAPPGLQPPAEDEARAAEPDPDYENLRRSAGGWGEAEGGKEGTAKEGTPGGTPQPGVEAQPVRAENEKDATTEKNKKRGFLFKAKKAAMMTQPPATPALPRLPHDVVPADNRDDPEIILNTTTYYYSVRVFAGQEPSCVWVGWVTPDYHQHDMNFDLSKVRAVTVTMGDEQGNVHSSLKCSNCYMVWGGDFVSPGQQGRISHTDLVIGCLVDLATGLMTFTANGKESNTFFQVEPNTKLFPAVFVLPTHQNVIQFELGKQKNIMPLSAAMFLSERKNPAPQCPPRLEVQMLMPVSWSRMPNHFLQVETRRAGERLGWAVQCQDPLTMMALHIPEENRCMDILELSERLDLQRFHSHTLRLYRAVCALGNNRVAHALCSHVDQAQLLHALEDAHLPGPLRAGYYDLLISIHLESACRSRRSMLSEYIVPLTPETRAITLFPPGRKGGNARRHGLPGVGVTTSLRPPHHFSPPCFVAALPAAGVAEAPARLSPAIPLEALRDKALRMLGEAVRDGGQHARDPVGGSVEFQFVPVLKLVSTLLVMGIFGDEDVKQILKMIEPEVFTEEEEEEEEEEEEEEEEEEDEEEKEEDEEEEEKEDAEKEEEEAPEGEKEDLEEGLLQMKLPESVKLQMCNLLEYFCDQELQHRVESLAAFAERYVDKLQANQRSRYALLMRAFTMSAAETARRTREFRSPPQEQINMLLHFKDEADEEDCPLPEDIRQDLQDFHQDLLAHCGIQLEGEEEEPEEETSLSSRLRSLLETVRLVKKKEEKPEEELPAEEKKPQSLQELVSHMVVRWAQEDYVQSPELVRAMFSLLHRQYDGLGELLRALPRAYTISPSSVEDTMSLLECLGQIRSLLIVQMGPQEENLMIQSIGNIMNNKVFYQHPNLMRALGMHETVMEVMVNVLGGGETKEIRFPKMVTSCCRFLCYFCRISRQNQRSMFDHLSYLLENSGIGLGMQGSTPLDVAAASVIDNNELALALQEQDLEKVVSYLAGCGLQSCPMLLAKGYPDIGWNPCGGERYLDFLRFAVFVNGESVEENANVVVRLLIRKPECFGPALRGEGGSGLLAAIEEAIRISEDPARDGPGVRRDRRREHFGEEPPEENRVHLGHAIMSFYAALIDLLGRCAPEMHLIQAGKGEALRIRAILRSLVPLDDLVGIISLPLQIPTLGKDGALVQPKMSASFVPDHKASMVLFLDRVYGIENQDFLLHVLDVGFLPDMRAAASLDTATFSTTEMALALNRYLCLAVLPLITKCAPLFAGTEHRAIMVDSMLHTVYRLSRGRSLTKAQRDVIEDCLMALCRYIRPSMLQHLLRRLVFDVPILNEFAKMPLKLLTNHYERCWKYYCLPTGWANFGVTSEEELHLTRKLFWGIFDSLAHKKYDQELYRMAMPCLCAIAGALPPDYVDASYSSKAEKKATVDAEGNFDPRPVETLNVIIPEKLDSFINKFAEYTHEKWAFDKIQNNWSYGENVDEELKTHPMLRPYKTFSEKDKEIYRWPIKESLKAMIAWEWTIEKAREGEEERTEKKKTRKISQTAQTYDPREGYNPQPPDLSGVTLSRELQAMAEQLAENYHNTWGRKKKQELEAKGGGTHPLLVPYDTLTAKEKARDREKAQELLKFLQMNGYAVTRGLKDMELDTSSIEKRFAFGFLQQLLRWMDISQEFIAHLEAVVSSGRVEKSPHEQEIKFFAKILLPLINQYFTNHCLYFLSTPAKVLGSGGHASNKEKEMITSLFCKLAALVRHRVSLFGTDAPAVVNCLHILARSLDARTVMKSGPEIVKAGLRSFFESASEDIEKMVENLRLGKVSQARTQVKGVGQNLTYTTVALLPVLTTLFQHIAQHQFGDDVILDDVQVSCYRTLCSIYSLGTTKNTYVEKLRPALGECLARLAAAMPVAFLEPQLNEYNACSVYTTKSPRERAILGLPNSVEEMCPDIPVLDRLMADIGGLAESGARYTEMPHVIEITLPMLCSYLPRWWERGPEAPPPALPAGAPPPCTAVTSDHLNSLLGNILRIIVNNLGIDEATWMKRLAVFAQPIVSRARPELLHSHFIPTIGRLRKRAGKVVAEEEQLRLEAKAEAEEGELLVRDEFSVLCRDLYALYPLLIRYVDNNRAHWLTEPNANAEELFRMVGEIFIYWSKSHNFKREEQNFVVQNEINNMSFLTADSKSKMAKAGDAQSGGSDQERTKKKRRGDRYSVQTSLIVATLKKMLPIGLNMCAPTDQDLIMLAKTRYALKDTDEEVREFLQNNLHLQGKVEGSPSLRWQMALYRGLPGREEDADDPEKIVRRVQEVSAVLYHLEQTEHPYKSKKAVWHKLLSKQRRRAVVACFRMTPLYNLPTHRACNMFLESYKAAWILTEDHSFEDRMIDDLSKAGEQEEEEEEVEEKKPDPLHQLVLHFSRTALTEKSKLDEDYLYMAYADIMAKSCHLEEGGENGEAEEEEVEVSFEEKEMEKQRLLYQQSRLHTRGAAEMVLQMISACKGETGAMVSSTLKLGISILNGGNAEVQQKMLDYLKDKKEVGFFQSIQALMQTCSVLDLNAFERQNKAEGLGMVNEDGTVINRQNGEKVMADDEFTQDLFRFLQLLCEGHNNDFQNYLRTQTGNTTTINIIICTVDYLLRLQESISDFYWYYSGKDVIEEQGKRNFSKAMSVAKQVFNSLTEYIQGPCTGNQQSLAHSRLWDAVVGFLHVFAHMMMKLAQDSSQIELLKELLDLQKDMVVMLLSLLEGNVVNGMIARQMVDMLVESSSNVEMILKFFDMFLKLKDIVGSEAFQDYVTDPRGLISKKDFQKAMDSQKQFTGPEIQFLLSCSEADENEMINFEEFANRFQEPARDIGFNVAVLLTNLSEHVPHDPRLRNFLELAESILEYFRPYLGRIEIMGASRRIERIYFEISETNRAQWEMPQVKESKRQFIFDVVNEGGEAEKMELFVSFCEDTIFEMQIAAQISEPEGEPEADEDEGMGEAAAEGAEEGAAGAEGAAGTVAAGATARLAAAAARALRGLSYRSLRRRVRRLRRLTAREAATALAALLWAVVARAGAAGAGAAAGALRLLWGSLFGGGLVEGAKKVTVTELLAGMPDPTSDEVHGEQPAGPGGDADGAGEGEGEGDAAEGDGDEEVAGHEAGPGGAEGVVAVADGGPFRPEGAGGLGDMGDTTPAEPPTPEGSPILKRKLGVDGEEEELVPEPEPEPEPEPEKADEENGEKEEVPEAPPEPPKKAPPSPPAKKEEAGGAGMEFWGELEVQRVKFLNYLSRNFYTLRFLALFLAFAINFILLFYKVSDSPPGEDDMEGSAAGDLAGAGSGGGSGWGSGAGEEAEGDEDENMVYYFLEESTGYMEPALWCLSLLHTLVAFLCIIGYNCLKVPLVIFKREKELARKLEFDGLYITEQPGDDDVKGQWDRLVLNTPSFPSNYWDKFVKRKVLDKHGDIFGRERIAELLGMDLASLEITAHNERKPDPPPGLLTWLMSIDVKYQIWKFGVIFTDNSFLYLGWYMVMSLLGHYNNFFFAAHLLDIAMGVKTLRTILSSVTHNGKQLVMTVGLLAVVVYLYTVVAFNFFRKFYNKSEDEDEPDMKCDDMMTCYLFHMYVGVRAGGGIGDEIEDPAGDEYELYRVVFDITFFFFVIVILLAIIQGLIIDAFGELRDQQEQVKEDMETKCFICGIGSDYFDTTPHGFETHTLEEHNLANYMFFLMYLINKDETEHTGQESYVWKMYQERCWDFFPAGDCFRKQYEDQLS

| SMILES | EC50 | EC50 of Psubstate compared with wild type (in words) (native RyR1 (Figure 2(b)), Figure 5(b), purified RyR1, also cited in sentence) |
| --- | --- | --- |
| CC(C)C[C@@H]1NC(=O)[C@H](Cc2c[nH]cn2)NC(=O)[C@@H]2CCCN2C(=O)[C@H](CC(C)C)NC(=O)[C@@H](NC(=O)[C@H](CC(=O)O)NC(=O)CN)CSSC[C@@H]2NC(=O)[C@@H]3CSSC[C@@H](C(=O)N[C@@H](CCCNC(=N)N)C(=O)O)NC(=O)[C@H](CCCNC(=N)N)NC(=O)[C@H](CCCCN)NC(=O)[C@H](CCC(=O)O)NC(=O)[C@H](C)NC(=O)[C@H](CC(N)=O)NC(=O)[C@H]([C@@H](C)O)NC(=O)CNC(=O)[C@H](CCCNC(=N)N)NC(=O)[C@H](CCCNC(=N)N)NC(=O)[C@H](C)NC(=O)[C@H](CSSC[C@H](NC(=O)[C@H](CCCNC(=N)N)NC(=O)[C@H](CCCCN)NC1=O)C(=O)N[C@@H](CCCCN)C(=O)N[C@@H](C)C(=O)N[C@@H](CC(=O)O)C(=O)N[C@@H](CC(N)=O)C(=O)N[C@@H](CC(=O)O)C(=O)N3)NC(=O)[C@H](CCCCN)NC(=O)[C@H](CCCCN)NC(=O)CNC2=O [K22A] (H-GDCLPHLKRCKADNDCCGKKCARRGTNAEKRCR-OH; disulfide 3-17, 10-21, 16-32) | 18.5 ± 2.88 nM | – |
| CC(C)C[C@@H]1NC(=O)[C@H](Cc2c[nH]cn2)NC(=O)[C@@H]2CCCN2C(=O)[C@H](CC(C)C)NC(=O)[C@@H](NC(=O)[C@H](CC(=O)O)NC(=O)CN)CSSC[C@@H]2NC(=O)[C@@H]3CSSC[C@@H](C(=O)N[C@@H](CCCNC(=N)N)C(=O)O)NC(=O)[C@H](CCCNC(=N)N)NC(=O)[C@H](CCCCN)NC(=O)[C@H](CCC(=O)O)NC(=O)[C@H](C)NC(=O)[C@H](CC(N)=O)NC(=O)[C@H]([C@@H](C)O)NC(=O)CNC(=O)[C@H](CCCNC(=N)N)NC(=O)[C@H](CCCNC(=N)N)NC(=O)[C@H](CCCCN)NC(=O)[C@H](CSSC[C@H](NC(=O)[C@H](CCCNC(=N)N)NC(=O)[C@H](CCCCN)NC1=O)C(=O)N[C@@H](CCCCN)C(=O)N[C@@H](C)C(=O)N[C@@H](CC(=O)O)C(=O)N[C@@H](CC(N)=O)C(=O)N[C@@H](C)C(=O)N3)NC(=O)[C@H](CCCCN)NC(=O)[C@H](CCCCN)NC(=O)CNC2=O [D15A] (H-GDCLPHLKRCKADNACCGKKCKRRGTNAEKRCR-OH; disulfide 3-17, 10-21, 16-32) | 21.5 ± 1.92 nM | – |
| CC(C)C[C@@H]1NC(=O)[C@H](Cc2c[nH]cn2)NC(=O)[C@@H]2CCCN2C(=O)[C@H](CC(C)C)NC(=O)[C@@H](NC(=O)[C@H](CC(=O)O)NC(=O)CN)CSSC[C@@H]2NC(=O)[C@@H]3CSSC[C@@H](C(=O)N[C@@H](CCCNC(=N)N)C(=O)O)NC(=O)[C@H](CCCNC(=N)N)NC(=O)[C@H](CCCCN)NC(=O)[C@H](CCC(=O)O)NC(=O)[C@H](C)NC(=O)[C@H](CC(N)=O)NC(=O)[C@H]([C@@H](C)O)NC(=O)CNC(=O)[C@H](CCCNC(=N)N)NC(=O)[C@H](CCCNC(=N)N)NC(=O)[C@H](CCCCN)NC(=O)[C@H](CSSC[C@H](NC(=O)[C@H](C)NC(=O)[C@H](CCCCN)NC1=O)C(=O)N[C@@H](CCCCN)C(=O)N[C@@H](C)C(=O)N[C@@H](CC(=O)O)C(=O)N[C@@H](CC(N)=O)C(=O)N[C@@H](CC(=O)O)C(=O)N3)NC(=O)[C@H](CCCCN)NC(=O)[C@H](CCCCN)NC(=O)CNC2=O [R9A] (H-GDCLPHLKACKADNDCCGKKCKRRGTNAEKRCR-OH; disulfide 3-17, 10-21, 16-32) | 19.9 ± 3.16 nM | – |
| CC(C)C[C@@H]1NC(=O)[C@H](Cc2c[nH]cn2)NC(=O)[C@@H]2CCCN2C(=O)[C@H](CC(C)C)NC(=O)[C@@H](NC(=O)[C@H](CC(=O)O)NC(=O)CN)CSSC[C@@H]2NC(=O)[C@@H]3CSSC[C@@H](C(=O)N[C@@H](CCCNC(=N)N)C(=O)O)NC(=O)[C@H](CCCNC(=N)N)NC(=O)[C@H](CCCCN)NC(=O)[C@H](CCC(=O)O)NC(=O)[C@H](C)NC(=O)[C@H](CC(N)=O)NC(=O)[C@H]([C@@H](C)O)NC(=O)CNC(=O)[C@H](C)NC(=O)[C@H](CCCNC(=N)N)NC(=O)[C@H](CCCCN)NC(=O)[C@H](CSSC[C@H](NC(=O)[C@H](CCCNC(=N)N)NC(=O)[C@H](CCCCN)NC1=O)C(=O)N[C@@H](CCCCN)C(=O)N[C@@H](C)C(=O)N[C@@H](CC(=O)O)C(=O)N[C@@H](CC(N)=O)C(=O)N[C@@H](CC(=O)O)C(=O)N3)NC(=O)[C@H](CCCCN)NC(=O)[C@H](CCCCN)NC(=O)CNC2=O [R24A] (H-GDCLPHLKRCKADNDCCGKKCKRAGTNAEKRCR-OH; disulfide 3-17, 10-21, 16-32) | 26 ± 7.01 nM | – |
| CC(C)C[C@@H]1NC(=O)[C@H](Cc2c[nH]cn2)NC(=O)[C@@H]2CCCN2C(=O)[C@H](CC(C)C)NC(=O)[C@@H](NC(=O)[C@H](CC(=O)O)NC(=O)CN)CSSC[C@@H]2NC(=O)[C@@H]3CSSC[C@@H](C(=O)N[C@@H](CCCNC(=N)N)C(=O)O)NC(=O)[C@H](CCCNC(=N)N)NC(=O)[C@H](CCCCN)NC(=O)[C@H](CCC(=O)O)NC(=O)[C@H](C)NC(=O)[C@H](CC(N)=O)NC(=O)[C@H](C)NC(=O)CNC(=O)[C@H](CCCNC(=N)N)NC(=O)[C@H](CCCNC(=N)N)NC(=O)[C@H](CCCCN)NC(=O)[C@H](CSSC[C@H](NC(=O)[C@H](CCCNC(=N)N)NC(=O)[C@H](CCCCN)NC1=O)C(=O)N[C@@H](CCCCN)C(=O)N[C@@H](C)C(=O)N[C@@H](CC(=O)O)C(=O)N[C@@H](CC(N)=O)C(=O)N[C@@H](CC(=O)O)C(=O)N3)NC(=O)[C@H](CCCCN)NC(=O)[C@H](CCCCN)NC(=O)CNC2=O [T26A] (H-GDCLPHLKRCKADNDCCGKKCKRRGANAEKRCR-OH; disulfide 3-17, 10-21, 16-32) | 9.98 ± 1.92 nM | dramatically decreased EC50 of Psubstate |
| CC(C)C[C@@H]1NC(=O)[C@H](Cc2c[nH]cn2)NC(=O)[C@@H]2CCCN2C(=O)[C@H](CC(C)C)NC(=O)[C@@H](NC(=O)[C@H](CC(=O)O)NC(=O)CN)CSSC[C@@H]2NC(=O)[C@@H]3CSSC[C@@H](C(=O)N[C@@H](CCCNC(=N)N)C(=O)O)NC(=O)[C@H](CCCNC(=N)N)NC(=O)[C@H](CCCCN)NC(=O)[C@H](CCC(=O)O)NC(=O)[C@H](C)NC(=O)[C@H](CC(N)=O)NC(=O)[C@H]([C@@H](C)O)NC(=O)CNC(=O)[C@H](CCCNC(=N)N)NC(=O)[C@H](CCCNC(=N)N)NC(=O)[C@H](CCCCN)NC(=O)[C@H](CSSC[C@H](NC(=O)[C@H](CCCNC(=N)N)NC(=O)[C@H](CCCCN)NC1=O)C(=O)N[C@@H](CCCCN)C(=O)N[C@@H](C)C(=O)N[C@@H](CC(=O)O)C(=O)N[C@@H](CC(N)=O)C(=O)N[C@@H](CC(=O)O)C(=O)N3)NC(=O)[C@H](CCCCN)NC(=O)[C@H](C)NC(=O)CNC2=O [K19A] (H-GDCLPHLKRCKADNDCCGAKCKRRGTNAEKRCR-OH; disulfide 3-17, 10-21, 16-32) | 21.8 ± 6.47 nM | – |
| CC(C)C[C@@H]1NC(=O)[C@H](Cc2c[nH]cn2)NC(=O)[C@@H]2CCCN2C(=O)[C@H](CC(C)C)NC(=O)[C@@H](NC(=O)[C@H](CC(=O)O)NC(=O)CN)CSSC[C@@H]2NC(=O)[C@@H]3CSSC[C@@H](C(=O)N[C@@H](CCCNC(=N)N)C(=O)O)NC(=O)[C@H](CCCNC(=N)N)NC(=O)[C@H](CCCCN)NC(=O)[C@H](CCC(=O)O)NC(=O)[C@H](C)NC(=O)[C@H](CC(N)=O)NC(=O)[C@H]([C@@H](C)O)NC(=O)CNC(=O)[C@H](CCCNC(=N)N)NC(=O)[C@H](CCCNC(=N)N)NC(=O)[C@H](CCCCN)NC(=O)[C@H](CSSC[C@H](NC(=O)[C@H](CCCNC(=N)N)NC(=O)[C@H](CCCCN)NC1=O)C(=O)N[C@@H](CCCCN)C(=O)N[C@@H](C)C(=O)N[C@@H](C)C(=O)N[C@@H](CC(N)=O)C(=O)N[C@@H](CC(=O)O)C(=O)N3)NC(=O)[C@H](CCCCN)NC(=O)[C@H](CCCCN)NC(=O)CNC2=O [D13A] (H-GDCLPHLKRCKAANDCCGKKCKRRGTNAEKRCR-OH; disulfide 3-17, 10-21, 16-32) | 21.7 ± 7.92 nM | – |
